How the values were obtained:
[1] = system: thoracic aorta rings of Wistar rat; assay: Vascular protective effects with respect to endothelial dysfunction caused by an inhibitor of NOS (LNA), aortic rings; conditions: compound at 10^-7 M, LNA 3x10^-7 M, relaxation due to ACh
Excerpt: Under standard in vitro conditions, relaxation of aortic rings caused by acetylcholine (ACh), which relaxation is entirely dependent on the presence of endothelium, reflects the production of NO (stimulated by ACh), which, by diffusing to smooth muscle cells, brings about arterial relaxation (Nature, 1980, 288, 373).
the first model consists of causing inhibition of the relaxation due to ACh by blocking the enzymatic activity (endothelial NOS) responsible for the production of NO;
The thoracic aorta of a Wistar rat (325-375 g), anaesthetised by the intraperitoneal route using pentobarbital sodium (30 mg/kg), is removed and dissected into rings having a length of 3 mm. Each ring is suspended from an isometric tension sensor connected to a recording system and the initial tension applied is 2.5 g. […]
After a 90-minute stabilisation period, the preparations are contracted using phenylephrine (PHE 10^−6 M) and relaxed by adding 10^−5 M of acetylcholine in order to verify the integrity of the endothelial layer. […] The preparations are again contracted using phenylephrine and, after 30 minutes, the relaxations due to acetylcholine (ACh-10^−8 M to 10^−5 M) are assessed in the presence of indomethacin (10^−5 M).
The relaxation values are expressed as a percentage relative to the maximum contraction caused by PHE. […]

[2] = system: aortic rings of New Zealand rabbits; assay: Protective vascular effects with respect to endothelial dysfunction caused by a system generating O2- (XO-Hypo), aortic rings; conditions: compound at 10^-7 M; XO 3 mU/ml, Hypo 10^-4 M; rabbit aortic rings
[3] = system: rat aortic rings; assay: Aortic production of cGMP stimulated by ACh in the presence of LNA; conditions: compound at 3x10 -M (so in the source), 30-minute incubation, ACh 10^-5 M 1 minute, LNA 3x10^-6 M
Protocol: By diffusing to the smooth muscle cells, the NO produced by the endothelial cells activates soluble guanylate cyclase, which brings about an increase in cyclic GMP, which is responsible for relaxation.
The rat aortic rings are prepared as previously. The effects of 30-minute incubation of compounds of the invention at different concentrations are assessed on the production of cGMP stimulated by ACh (10^−5 M—1 minute) in the presence of LNA (3×10^−6 M). The said experiments are carried out in the presence of isobutylmethylxanthine (10^−5 M) in order to avoid degradation of the cGMP by phosphodiesterases. The rings are frozen in liquid nitrogen and maintained at −80° C. until the assay is carried out. The cGMP content is assessed by radioimmunoassay and expressed in relation to the amount of proteins contained in the tissue (assay by the Bradford method).

O=c1c(NCCN2CCC(COc3ccccc3)CC2)c(N2CCc3ccccc32)c1=O [Example 5, 3-(2,3-Dihydro-1H-indol-1-yl)-4-({2-[4-(Phenoxymethyl)-1-piperidinyl]-ethyl}amino)-3-cyclobutene-1,2-dione and its methanesulphonate]
inhibition of the endothelial dysfunction caused by LNA [1]: 27%
inhibition of the endothelial dysfunction caused by the XO-Hypo combination [2]: 17%
increase of the production of cGMP stimulated by ACh in the presence of LNA [3]: 39%

— US20020065419A1, “Cyclobutenedione compounds” (priority 2000, published 2002)
